The numbers were not newly measured in patent US20180161299A1, “ESSENTIAL NUTRIENTS AND RELATED METHODS” (Balchem Corporation, priority 2016, published 2018), which cites them from elsewhere.

For data set [1] the following is noted: pregnant women, choline intake increased from 480 mg to 930 mg.

`C[N+](C)(C)CCO` [choline, N,N,N-trimethylethanolammonium cation]: the “choline excreted in the urine” value in data set [1] was “little, if any”.
As to cobalamin [Vitamin B12], the “increase in the amount of B12 analogues present in the GI tract and in the circulation” value (large oral and systemic doses of B12) is reported as “more than 10 fold”. Also, the “vitamin B12 absorbed by diffusion from the gastrointestinal tract” value (large oral doses (500 μg to 5000 μg)) was “less than 1%”. Moreover, the “vitamin B12 absorbed” value (typical oral vitamin B12 supplementations) is “less than 1%”.
